Measurements reported in patent US4537769A (priority 1982, dated 1985).
Where two headings read alike, the source gives them in different places.

Test system: H7N1 neuraminidase
Type: biochemical, influenza virus
Conditions: for Units of Activity: 37° C. for 24 hours; for Neuraminidase Activity-24 Hrs Post 37° C.: H7N1 vaccine
[1] = H7N1 vaccine with additive at .03%
[2] = H7N1 vaccine with additive at .02%
[3] = H7N1 vaccine with additive at .05%
[4] = H7N1 vaccine with additive at .04%
[5] = H7N1 vaccine with additive at .07%

## N[C@@H](Cc1ccc(O)cc1)C(=O)O [Tyrosine]
[1]
  Units of Activity: 4.4 Nanomoles of N--acetyl neurami

## CC(C)[C@H](N)C(=O)O [Valine]
H7N1 vaccine with additive at .06%
  Units of Activity: 6.7 Nanomoles of N--acetyl neurami

## C[C@H](N)C(=O)O [Alanine]
[1]
  Units of Activity: 9.0 Nanomoles of N--acetyl neurami

## N[C@@H](Cc1c[nH]cn1)C(=O)O [Histidine]
[2]
  Units of Activity: 13.1 Nanomoles of N--acetyl neurami
No. 1: Histidine 0.02 % w/v
  Neuraminidase Activity-24 Hrs Post 37° C.: 13.0
No. 2: Histidine 0.05 % w/v
  Neuraminidase Activity-24 Hrs Post 37° C.: 17.3
No. 3: Histidine 0.09 % w/v
  Neuraminidase Activity-24 Hrs Post 37° C.: 23.8
No. 4: Histidine 0.13 % w/v
  Neuraminidase Activity-24 Hrs Post 37° C.: 27.9

## CC[C@H](C)[C@H](N)C(=O)O [Isoleucine]
[3]
  Units of Activity: 5.2 Nanomoles of N--acetyl neurami

## N[C@@H](Cc1ccccc1)C(=O)O [Phenylalanine]
[4]
  Units of Activity: 9.1 Nanomoles of N--acetyl neurami

## N[C@@H](CCC(=O)O)C(=O)O [Glutamic Acid]
H7N1 vaccine with additive at .18%
  Units of Activity: 4.5 Nanomoles of N--acetyl neurami

## NCCCC[C@H](N)C(=O)O [Lysine]
[5]
  Units of Activity: 8.5 Nanomoles of N--acetyl neurami

## N[C@@H](CO)C(=O)O [Serine]
[3]
  Units of Activity: 9.1 Nanomoles of N--acetyl neurami

## C[C@@H](O)[C@H](N)C(=O)O [Threonine]
[4]
  Units of Activity: 6.7 Nanomoles of N--acetyl neurami

## CC(C)C[C@H](N)C(=O)O [Leucine]
H7N1 vaccine with additive at .08%
  Units of Activity: 7.3 Nanomoles of N--acetyl neurami

## NCC(=O)O [Glycine]
[2]
  Units of Activity: 8.5 Nanomoles of N--acetyl neurami

## N[C@@H](CC(=O)O)C(=O)O [Aspartic Acid]
[5]
  Units of Activity: 5.9 Nanomoles of N--acetyl neurami

## CSCC[C@H](N)C(=O)O [Methionine]
[2]
  Units of Activity: 8.9 Nanomoles of N--acetyl neurami

## N[C@@H](Cc1c[nH]c2ccccc12)C(=O)O [Tryptophan]
H7N1 vaccine with additive at .01%
  Units of Activity: 10.4 Nanomoles of N--acetyl neurami

## O=C(O)[C@@H]1CCCN1 [Proline]
H7N1 vaccine with additive at .09%
  Units of Activity: 12.3 Nanomoles of N--acetyl neurami
No. 5: Proline 0.09 % w/v
  Neuraminidase Activity-24 Hrs Post 37° C.: 12.3
No. 6: Proline 0.18 % w/v
  Neuraminidase Activity-24 Hrs Post 37° C.: 17.5
No. 7: Proline 0.36 % w/v
  Neuraminidase Activity-24 Hrs Post 37° C.: 26.2
No. 8: Proline 0.54 % w/v
  Neuraminidase Activity-24 Hrs Post 37° C.: 30.7
